Assay results published in paper PMC6540907, “The nuclear export inhibitor aminoratjadone is a potent effector in extracellular-targeted drug conjugates” (Chemical Science, 2019).
Where two headings read alike, the source gives them in different places. Values belong to the compound of their own block, whether it stands above or below them. No end group written: not given here.

Experiments:
CRM1 = CRM1 (Homo sapiens, UniProt O14980); assay: Nuclear export inhibition, fluorescent translocation biosensor in recombinant HeLa cells; assay type: cell-based; set-up: This cellular assay uses HeLa cells that express a recombinant fusion protein; endogenous in cells; host or cells: HeLa cells stably expressing the NLS-GST-GFP-RevNES translocation biosensor (HeLaRevBio); conditions: 1 h incubation
Chain of CRM1 (O14980 whole entry, the tested form may be a part): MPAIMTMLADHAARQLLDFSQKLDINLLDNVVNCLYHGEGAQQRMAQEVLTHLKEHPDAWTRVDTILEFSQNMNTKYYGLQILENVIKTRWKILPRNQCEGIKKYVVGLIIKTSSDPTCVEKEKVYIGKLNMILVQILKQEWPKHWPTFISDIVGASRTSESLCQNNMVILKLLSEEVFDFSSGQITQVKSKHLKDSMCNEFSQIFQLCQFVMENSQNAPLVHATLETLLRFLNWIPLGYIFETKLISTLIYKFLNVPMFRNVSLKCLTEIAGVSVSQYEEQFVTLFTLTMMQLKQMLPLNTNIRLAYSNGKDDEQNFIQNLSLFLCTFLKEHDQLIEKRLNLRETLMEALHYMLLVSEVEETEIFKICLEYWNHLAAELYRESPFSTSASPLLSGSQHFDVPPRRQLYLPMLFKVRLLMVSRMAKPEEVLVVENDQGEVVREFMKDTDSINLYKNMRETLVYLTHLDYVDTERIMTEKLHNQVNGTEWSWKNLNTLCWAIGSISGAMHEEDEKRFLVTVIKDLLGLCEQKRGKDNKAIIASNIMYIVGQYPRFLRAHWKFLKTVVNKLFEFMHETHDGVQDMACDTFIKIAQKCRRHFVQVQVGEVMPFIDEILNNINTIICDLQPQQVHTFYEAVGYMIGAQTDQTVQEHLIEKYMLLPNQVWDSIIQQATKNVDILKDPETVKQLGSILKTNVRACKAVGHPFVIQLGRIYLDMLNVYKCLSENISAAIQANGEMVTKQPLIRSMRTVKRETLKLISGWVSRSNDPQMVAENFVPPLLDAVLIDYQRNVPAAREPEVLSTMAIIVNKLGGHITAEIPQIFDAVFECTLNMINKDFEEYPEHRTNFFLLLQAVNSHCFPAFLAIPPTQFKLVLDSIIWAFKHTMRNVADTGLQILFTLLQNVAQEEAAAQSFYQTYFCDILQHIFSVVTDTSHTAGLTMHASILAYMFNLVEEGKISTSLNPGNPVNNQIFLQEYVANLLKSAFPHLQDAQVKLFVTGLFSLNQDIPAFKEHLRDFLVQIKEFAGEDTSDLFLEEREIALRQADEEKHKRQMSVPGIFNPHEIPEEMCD

L-929 [1] = assay: Cell proliferation assay (MTT, 5 days); assay type: cell-based, murine
Procedure: (§1) Biological evaluation of the compounds […]
(§2) serial dilutions of the test compound were given to 120 µL of suspended cells (50.000/mL) in wells of 96-well plates. After 5 days of incubation growth inhibition (IC50) was determined using an MTT assay.9
(§3) Table S1:Medium conditions for different cell types.
(§4) Cell type Medium Additives
(§5) L-929 (DSMZ ACC 2) DME medium (high glucose) (Gibco) 10% fetal calf serum (Gibco) SKOV-3 DSMZ ATCC HTB Mc Coys-Medium (Gibco) 10% fetal calf serum (Gibco) […]
A549 (DSMZ ACC 107) DME medium (high glucose) (Gibco) 10% fetal calf serum (Gibco) KB 3.1 (DSMZ ACC 158) DME medium (high glucose) (Gibco) 10% fetal calf serum (Gibco) Ratjadone Compound Antiproliferative activity IC50 [nM]
KB-3.1: human cervix carcinoma, KB-V1: multi-drug-resistant human cervix carcinoma, K-562: human chronic myelogenous leukemia cell, PC-3: human prostate carcinoma, L-929: murine fibroblast
Figure S8: Structures of Ratjadone A-D and their antiproliferative activity (IC50 values in nM). Data published by Köster et al.10

SK-OV-3 = assay: cells; assay type: cell-based, human; conditions: Homo sapiens
Procedure: as §1, §2, §3, §4, §5
(§6) A549 (DSMZ ACC 107) DME medium (high glucose) (Gibco) 10% fetal calf serum (Gibco)

A-549 = assay: cells; assay type: cell-based, human; conditions: Homo sapiens
Procedure: as §1, §2, §3, §4, §5, §6

MCF-7 = assay: cells; assay type: cell-based, human; conditions: Homo sapiens
Procedure: as §1, §2, §3, §4, §5, §6

KB-3.1 [2] = assay: cells; assay type: cell-based, human
Procedure: as §1, §2, §3, §4, §5, §6

PC-3 = system: PC-3; set-up: method as in Köster et al.10; conditions: PC-3 human prostate carcinoma; ref Köster et al.10; read-out: Antiproliferative activity IC50; cited from earlier work
KB-3.1 [3] = system: KB-3.1; set-up: method as in Köster et al.10; conditions: KB-3.1 human cervix carcinoma; ref Köster et al.10; read-out: Antiproliferative activity IC50; cited from earlier work
L-929 [4] = system: L-929; set-up: method as in Köster et al.10; conditions: L-929 murine fibroblast; ref Köster et al.10; read-out: Antiproliferative activity IC50; cited from earlier work
KB-V1 = system: KB-V1; set-up: method as in Köster et al.10; conditions: KB-V1 multi-drug-resistant human cervix carcinoma; ref Köster et al.10; read-out: Antiproliferative activity IC50; cited from earlier work
K-562 = system: K-562; set-up: method as in Köster et al.10; conditions: K-562 human chronic myelogenous leukemia; ref Köster et al.10; read-out: Antiproliferative activity IC50; cited from earlier work
[5] = system: panel of cancer cell lines; assay: Antiproliferative activity of drug-free LHRH carriers in a panel of cancer cell lines; assay type: cell-based, human; conditions: KB-3.1, A-549, SK-OV-3, MCF-7
From the text: Luteinizing hormone releasing hormone (LHRH)-based carriers were selected for this purpose, because it has been shown that several cancer cell types overexpress receptors for LHRH, a peptide-hormone involved in regulation of the sex glands of males and females.[25],[26],[29],[82]–[84] We synthesized three novel derivatives of LHRH that bear azido-ornithine as […] amino acid of the decapeptide core structure instead of the glycine residue found in the natural peptide (Fig. 8). As the importance of the newly introduced stereocenter was unclear, both diastereoisomers L-Orn-N3-LHRH and D-Orn-N3-LHRH were prepared. An additional analog, D-Orn-N3-Gose, was based on the synthetic LHRH analogue goserelin, that was reported to have higher affinity for the LHRH-receptor[85] due to a hydrazine carboxamide in the C-terminal position. […] Next, their antiproliferative activities were evaluated in a panel of cancer cell lines, in order to assess a contribution of the drug-free targeting moiety to bioactivity. […] The conjugates were evaluated for their antiproliferative activity against the LHRH-receptor-positive lung cancer cell line A-549 (Table 3). […]
serial dilutions of the test compound were given to 120 µL of suspended cells (50.000/mL) in wells of 96-well plates. After 5 days of incubation growth inhibition (IC50) was determined using an MTT assay.9 […]

[6] = Plasma stability assay (HPLC-MS/MS); assay type: in vitro ADME; conditions: 37 °C, pH 7.4, two hours, 250 µM
Procedure: We exposed three selected conjugates, FA-7-Val-Cit-PABA-16R-aminoratjadone, FA-SS-16R-aminoratjadone and FA-3b-16R-aminoratjadone, to human plasma and quantified their relative amount at different time points by HPLC-MS/MS analysis (Fig. 9).
FA-7-Val-Cit-pABA-16R-Aminoratjadone (PK008a), FA-SS-16R-Aminoratjadone (PK026a) and FA-3b-L-Aminoratjadone (PK058a) were dissolved in DMSO were added to human plasma (pH 7.4, 37°C) to yield a final concentration of 10 µg/ml. In addition, procaine, propoxycaine and procainamide (dissolved in DMSO) were added to human plasma (pH 7.4, 37°C) to yield a final concentration of 250 µM. Procaine and propoxycaine served as positive controls as they are known to be unstable in mouse plasma. Procainamide served as negative control as it is known to be stable in mouse plasma. The samples were incubated for 0 min, 30 min, 60 min, 90 min and 120 min at 37°C. At each time point 10 µl of the respective sample was extracted with 50 µl acetonitrile containing an internal standard for 15 min on ice. […] All samples were analyzed via HPLC-MS using an Agilent 1290 Inifinity II HPLC system coupled to an AB Sciex QTrap 6500plus mass spectrometer. […]
MRM. All compo unds were detected in positive scan mode. Peak areas of each compound and of the internal standard were analyzed using MultiQuant 3.0 software (AB Sciex). Peaks were quantified using […]

[7] = set-up: method as in ref 86 = [86]; Hartmann D. A. Curr. Protoc. Pharmacol. 2002 19 7.6.1 7.6.8; conditions: cited from earlier work
[8] = nuclear export inhibition IC50, HeLa cells expressing translocation biosensor
[9] = Mus musculus, L929, read-out: Antiproliferative activity IC50, L-929 murine fibroblast
[10] = SK-OV-3, read-out: Antiproliferative activity IC50
[11] = A549, read-out: Antiproliferative activity IC50, A-549 human lung carcinoma
[12] = MCF7, read-out: Antiproliferative activity IC50, MCF-7 human breast carcinoma
[13] = Homo sapiens, KB 3-1, read-out: Antiproliferative activity IC50, KB-3.1 human cervix carcinoma

Compound: CC=CC1OC(C(O)C=CC=C(C)CC(C)C=C(C)C=CC2CC=CC(=O)O2)CC(O)C1C (single isomer, unassigned; (+)) [Compound 1, (+)-ratjadone A, reference compound]
IC50 (CRM1; HeLa cells expressing translocation biosensor, read-out: nuclear export inhibition IC50): 1.2 nM | IC50 (L-929 [1]; Mus musculus, L929, L-929 murine fibroblast, read-out: Antiproliferative activity IC50): 0.68 nM | IC50 (SK-OV-3; SK-OV-3, SK-OV-3 human ovarian carcinoma, read-out: Antiproliferative activity IC50): 0.24 nM | IC50 (A-549; A549, A-549 human lung carcinoma, read-out: Antiproliferative activity IC50): 0.15 nM | IC50 (MCF-7; MCF7, MCF-7 human breast carcinoma, read-out: Antiproliferative activity IC50): 0.11 nM | IC50 (KB-3.1 [2]; KB 3-1, KB-3.1 human cervix carcinoma, read-out: Antiproliferative activity IC50): 0.46 nM | IC50 (PC-3): 0.08 nM | IC50 (KB-3.1 [3]): 0.3 nM | IC50 (L-929 [4]): 0.15 nM | IC50 (KB-V1): 0.15 nM | IC50 (K-562): 0.3 nM

Compound: C/C=C/[C@@H]1O[C@H]([C@@H](O)/C=C/C=C/C[C@@H](C)/C=C(C)\C=C\[C@H]2CC=CC(=O)O2)C[C@@H](O)[C@@H]1C [Compound 2, Ratjadone B]
IC50 (PC-3): 0.15 nM | IC50 (KB-3.1 [3]): 1 nM | IC50 (L-929 [4]): 0.35 nM | IC50 (KB-V1): 0.15 nM | IC50 (K-562): 0.5 nM

Compound: C/C=C/[C@@H]1O[C@H]([C@@H](O)/C=C/C=C/C[C@@H](C)/C=C(\C=C\[C@H]2CC=CC(=O)O2)CC)C[C@@H](O)[C@@H]1C [Compound 3, Ratjadone C]
IC50 (PC-3): 0.08 nM | IC50 (KB-3.1 [3]): 0.35 nM | IC50 (L-929 [4]): 0.2 nM | IC50 (KB-V1): 0.08 nM | IC50 (K-562): 0.15 nM

Compound: C/C=C/[C@@H]1O[C@H](C/C=C/C=C/C[C@@H](C)/C=C(\C=C\[C@H]2CC=CC(=O)O2)CC)C[C@@H](O)[C@@H]1C [Compound 4, Ratjadone D]
IC50 (PC-3): 0.4 nM | IC50 (KB-3.1 [3]): 2 nM | IC50 (L-929 [4]): 1 nM | IC50 (KB-V1): 0.3 nM | IC50 (K-562): 0.5 nM

Compound: C/C=C/[C@@H]1O[C@H]([C@H](N)/C=C/C=C(\C)C[C@@H](C)/C=C(C)\C=C\[C@H]2CC=CC(=O)O2)C[C@@H](O)[C@@H]1C [Compound 16, 16R-aminoratjadone]
IC50 (CRM1; [8]): 2.7 nM | IC50 (L-929 [1]; [9]): 4.61 nM | IC50 (SK-OV-3; [10]): 0.61 nM | IC50 (A-549; [11]): 0.31 nM | IC50 (MCF-7; [12]): 0.26 nM | IC50 (KB-3.1 [2]; [13]): 0.39 nM

Compound: C/C=C/[C@@H]1O[C@H]([C@@H](N)/C=C/C=C(\C)C[C@@H](C)/C=C(C)\C=C\[C@H]2CC=CC(=O)O2)C[C@@H](O)[C@@H]1C [Compound 17, 16S-aminoratjadone]
IC50 (CRM1; [8]): 2.8 nM | IC50 (L-929 [1]; [9]): 28.4 nM | IC50 (L-929 [1]; read-out: Antiproliferative activity IC50, L-929 murine fibroblast): 28.4 nM | IC50 (SK-OV-3; [10]): 0.81 nM | IC50 (A-549; [11]): 1.31 nM | IC50 (MCF-7; [12]): 0.36 nM | IC50 (KB-3.1 [2]; [13]): 1.59 nM

Compound: C#CCCOC(=O)N[C@H](/C=C/C=C(\C)C[C@@H](C)/C=C(C)\C=C\[C@H]1CC=CC(=O)O1)[C@@H]1C[C@@H](O)[C@H](C)[C@H](/C=C/C)O1 [Compound 21]
IC50 (CRM1; [8]): 46.1 nM | IC50 (L-929 [1]; [9]): 4.5 nM | IC50 (SK-OV-3; [10]): 0.45 nM | IC50 (A-549; [11]): 1.25 nM | IC50 (MCF-7; [12]): 0.27 nM | IC50 (KB-3.1 [2]; [13]): 0.47 nM

Compound: CC(C)C[C@H](NC(=O)[C@H](CCCN=[N+]=[N-])NC(=O)[C@H](Cc1ccc(O)cc1)NC(=O)[C@H](CO)NC(=O)[C@H](Cc1c[nH]c2ccccc12)NC(=O)[C@H](Cc1c[nH]cn1)NC(=O)[C@@H]1CCC(=O)N1)C(=O)N[C@@H](CCCNC(=N)N)C(=O)N1CCC[C@H]1C(=O)NCC(N)=O [L-Orn-N3-LHRH]
antiproliferative activity of the drug-free targeting moiety [5]: no antiproliferative activity

degraded in human plasma [6]: more than 90%
Compound: CCN(CC)CCOC(=O)c1ccc(N)cc1 [procain]
stability in plasma (known) [7]: degrade rapidly in plasma

degraded in human plasma [6]: more than 90%
Compound: CCCOc1cc(N)ccc1C(=O)OCCN(CC)CC [propoxycain]
stability in plasma (known) [7]: degrade rapidly in plasma

Compound: LHRH: luteinizing hormone releasing hormone, peptide hormone (QHWSYGLRPG-NH2; not fully specified (residue 1); ends and bridges not checked; UniProt P01148 24-33, looked up) [reference compound]
antiproliferative activity of the drug-free targeting moiety [5]: no antiproliferative activity
